Reference: patent US20250188032A1, “NITROGEN-CONTAINING HETEROCYCLIC COMPOUNDS AND USES THEREOF” (BNH RESEARCH CO., LTD., priority 2022, published 2025)
Values joined by “and” are separate entries in the source; they are usually repeats but may differ in a detail not shown here. Equal values may be shown once.

Key:
293T cells = experiment: Cytotoxicity test (CCK-8 cell viability) in 293T cells; format: cell-based, human; details: 24 hours co-incubation, 293T cell line, % of control
Method: Human undifferentiated neuroblastoma cell line SH-SY5Y and human embryonic kidney cell line (HEK)-293T were purchased from Korean Cell Line Bank (Korea) and Takara (Japan), respectively. Cells were grown in HyClone Minimal Essential Medium (MEM) and Dulbecco's Modified Eagle Medium (DMEM), respectively, supplemented with 10% (v/v) fetal bovine serum (FBS), penicillin (100 U/mL), and streptomycin ([…]). Cells were maintained in a humidified atmosphere of 95% air and 5% CO2 at 37° C. Cells were passaged 10 times at maximum. Cells were dissociated using 0.05% trypsin-EDTA solution and the cells were seeded in new culture dishes for maintenance.
To examine the cytotoxicity of compounds described herein in human cell lines, SH-SY5Y and 293T cells were used. Approximately 8,000 cells (for 293T) and 15,000 cells (for SH-SY5Y) were plated per well of a 96-well plate (SPL Life Sciences Co., Ltd., Pocheon, Korea). After incubating at 37° C. for 24 hours in a humidified atmosphere containing 5% CO2, the culture medium was replaced by a series of concentrations of test compounds diluted in the corresponding culture medium. The time of co-incubation was 24 hours and six replicates were made for each measurement. Finally, 10 μL of CCK-8 reagent (Dojindo Laboratories, Rockville, MD) was added to each well, and after incubation at 37° C. for 3 minutes, the OD at 450 nm was measured using a multifunction microplate reader (Tecan Infinite M200 Pro). These measurements were compared to that of a control and expressed as a percentage of the control to calculate cell viability. The IC50 value was calculated using SPSS software. To do this, the absorbance of the blank wells with only growth medium is subtracted from the values or the wells with cells. The readout value of background (vehicle) was set as a 100% viability, and then the percent viability for each test solution was calculated.
Cell viability (%)=[(As-Ab)/(Ac-Ab)]×100
The data was presented as the mean value and standard error of the mean (S.E.M.). Statistical analysis was performed with the one-way ANOVA with Tukey's post hoc test (GraphPad Prism 5 software package, version 5.02, GraphPad Software Inc. USA). Significance was accepted at p<0.05.

GluN2B = experiment: Western blot of GluN2B protein in cultured fetal cortical cells; format: cell-based, mice; details: for GluN2B expression, Western blot results, Mean: relative value, vehicle set to 1, treated for 24 hours, N 3 or more; for Effect on GluN2B expression compared to the vehicle: comment on Table 6
Method: The amount of GluN2B reacted with the compound of the present disclosure was measured using Western blot. The fetal cerebral cortex was extracted from mice at 17 days of gestation, dissociated into single cells, cultured for 13 days, and treated with BnH drugs for 24 hours. The drug-treated cells were subjected to protein lysate preparation using RIPA protein lysis buffer containing protease and phosphatase inhibitors. The protein concentration was determined using a BCA protein assay kit (Pierce Biotechnology) using bovine serum albumin as a standard. Equal amounts of protein (20 μg per lane) were separated by electrophoresis on SDS-polyacrylamide gels at 90 V for 2 hours, then transferred from the SDS-polyacrylamide gel to PVDF membrane at 100 V for 1 hour. Then, primary reaction with GluN2B antibody (ab65783, Abcam) was performed at 4° C. for 1 day, washed three times at 10-minutes intervals with 1×PBT, and secondary reaction was performed with anti-mouse antibody (sc-2357, Santa Cruz) for 1 hour, followed by washing three times at 10-minutes intervals with 1×PBT. Western blotting was performed as described above to confirm GluN2B protein expression. Subsequently, each blot was re-probed using anti-β-actin antibody (sc-47778, Santa Cruz). Housekeeping protein β-actin was detected as a normalization control.
The increase and decrease of BnH12 series were confirmed by setting the vehicle to 1 (N for each group was 3 or more).
Using the experimental procedure described in Example 3, it was determined whether various BnH12 series compounds increase GluN2B expression, and the results are shown in Table 6. These in vitro experimental results are expressed as relative values to the group (vehicle) that was not treated with the compound, with the effect of the group set to 1.

C[C@H]1CC[C@@H](C(=O)O)CN1C(=O)CC1CCCCC1 [BnH12006, (3R,6S)-1-(2-cyclohexylacetyl)-6-methylpiperidine-3-carboxylic acid]
Cell viability test results (CCK) 10 uM (293T cells): 99%< | Cell viability test results (CCK) 100 uM (293T cells): 95%< | GluN2B expression, Western blot results, Mean (GluN2B): 1.238

CC(C)C1CCC(C(=O)O)CN1C(=O)Cc1ccc(F)cc1Cl (stereo not drawn) [BnH12096, 1-(2-(2-chloro-4-fluorophenyl)acetyl)-6-isopropylpiperidine-3-carboxylic acid]
Cell viability test results (CCK) 10 uM (293T cells): 70%< | Cell viability test results (CCK) 100 uM (293T cells): 65%< | Effect on GluN2B expression compared to the vehicle (GluN2B): excellent effects | GluN2B expression, Western blot results, Mean (GluN2B): 2.848

O=C(NO)[C@H]1CCCN1C(=O)c1ccccc1 [BnH12018, (R)-1-benzoyl-N-hydroxypyrrolidine-2-carboxamide]
Cell viability test results (CCK) 10 uM (293T cells): 90%< | Cell viability test results (CCK) 100 uM (293T cells): 90%< | Effect on GluN2B expression compared to the vehicle (GluN2B): excellent effects | GluN2B expression, Western blot results, Mean (GluN2B): 1.381

C[C@H]1CC[C@@H](C(=O)[O-])CN1C(=O)Cc1ccccn1.[Na+] [BnH12039, Sodium (3R,6S)-6-methyl-1-(2-(pyridin-2-yl)acetyl)piperidine-3-carboxylate]
Cell viability test results (CCK) 10 uM (293T cells): 95%< | Cell viability test results (CCK) 100 uM (293T cells): 90%< | GluN2B expression, Western blot results, Mean (GluN2B): 1.103

C[C@H]1CC[C@@H](C(=O)NO)CN1C(=O)Cc1ccc(F)cc1Cl [BnH12009, (3R,6S)-1-(2-(2-chloro-4-fluorophenyl)acetyl)-N-hydroxy-6-methylpiperidine-3-carboxamide]
Cell viability test results (CCK) 10 uM (293T cells): 95%< | Cell viability test results (CCK) 100 uM (293T cells): 90%< | GluN2B expression, Western blot results, Mean (GluN2B): 1.248

COc1ccc(CC(=O)N2C[C@H](C(=O)O)CC[C@@H]2C)cc1 [BnH12025, (3R,6S)-1-(2-(4-methoxyphenyl)acetyl)-6-methylpiperidine-3-carboxylic acid]
Cell viability test results (CCK) 10 uM (293T cells): 90%< | Cell viability test results (CCK) 100 uM (293T cells): 80%< | Effect on GluN2B expression compared to the vehicle (GluN2B): excellent effects | GluN2B expression, Western blot results, Mean (GluN2B): 1.582

C[C@H]1CC[C@@H](C(=O)O)CN1C(=O)Cc1cccc([N+](=O)[O-])c1 [BnH12073, (3R,6S)-6-methyl-1-(2-(3-nitrophenyl)acetyl)piperidine-3-carboxylic acid]
Cell viability test results (CCK) 10 uM (293T cells): 85%< | Cell viability test results (CCK) 100 uM (293T cells): 85%< | Effect on GluN2B expression compared to the vehicle (GluN2B): excellent effects | GluN2B expression, Western blot results, Mean (GluN2B): 2.013

C[C@H]1CC[C@@H](C(=O)O)CN1C(=O)Cc1ccc(O)cc1 [BnH12079, (3R,6S)-1-(2-(4-hydroxyphenyl)acetyl)-6-methylpiperidine-3-carboxylic acid]
Cell viability test results (CCK) 10 uM (293T cells): 99%< | Cell viability test results (CCK) 100 uM (293T cells): 90%< | GluN2B expression, Western blot results, Mean (GluN2B): 1.062

C[C@H]1CC[C@@H](C(=O)O)CN1C(=O)c1ccccc1 [BnH12065, (3R,6S)-1-benzoyl-6-methylpiperidine-3-carboxylic acid]
Cell viability test results (CCK) 10 uM (293T cells): 95%< | Cell viability test results (CCK) 100 uM (293T cells): 95%< | GluN2B expression, Western blot results, Mean (GluN2B): 1.326

C[C@H]1CC[C@@H](C(=O)O)CN1C(=O)Cc1ccc([N+](=O)[O-])cc1 [BnH12069, (3R,6S)-6-methyl-1-(2-(4-nitrophenyl)acetyl)piperidine-3-carboxylic acid]
Cell viability test results (CCK) 10 uM (293T cells): 95%< and 80%< | Cell viability test results (CCK) 100 uM (293T cells): 95%< and 80%< | Effect on GluN2B expression compared to the vehicle (GluN2B): excellent effects | GluN2B expression, Western blot results, Mean (GluN2B): 1.993

C[C@H]1CCCCN1C(=O)Cc1ccccc1 [BnH12061, (S)-1-(2-methylpiperidin-1-yl)-2-phenylethan-1-one]
Cell viability test results (CCK) 10 uM (293T cells): 95%< | Cell viability test results (CCK) 100 uM (293T cells): 95%< | Effect on GluN2B expression compared to the vehicle (GluN2B): excellent effects | GluN2B expression, Western blot results, Mean (GluN2B): 1.683

C[C@H]1CC[C@@H](C(=O)O)CN1C(=O)Cc1ccccc1 [BnH12007, (3R,6S)-6-methyl-1-(2-phenylacetyl)piperidine-3-carboxylic acid]
Cell viability test results (CCK) 10 uM (293T cells): 95%< | Cell viability test results (CCK) 100 uM (293T cells): 95%< | GluN2B expression, Western blot results, Mean (GluN2B): 1.311

O=C(NO)[C@@H]1CCCN1C(=O)Cc1ccc(F)cc1Cl [BnH12016, (S)-1-(2-(2-chloro-4-fluorophenyl)acetyl)-N-hydroxypyrrolidine-2-carboxamide]
Cell viability test results (CCK) 10 uM (293T cells): 99%< | Cell viability test results (CCK) 100 uM (293T cells): 90%< | GluN2B expression, Western blot results, Mean (GluN2B): 1.311

C[C@H]1CC[C@@H](C(=O)[O-])CN1C(=O)Cc1cccnc1.[Na+] [BnH12038, Sodium (3R,6S)-6-methyl-1-(2-(pyridin-3-yl)acetyl)piperidine-3-carboxylate]
Cell viability test results (CCK) 10 uM (293T cells): 85%< | Cell viability test results (CCK) 100 uM (293T cells): 85%< | Effect on GluN2B expression compared to the vehicle (GluN2B): excellent effects | GluN2B expression, Western blot results, Mean (GluN2B): 1.811

C[C@H]1CC[C@@H](C(=O)O)CN1C(=O)Cc1ccc(N)cc1 [BnH12070, (3R,6S)-1-(2-(4-aminophenyl)acetyl)-6-methylpiperidine-3-carboxylic acid]
Cell viability test results (CCK) 10 uM (293T cells): 99%< | Cell viability test results (CCK) 100 uM (293T cells): 90%< | GluN2B expression, Western blot results, Mean (GluN2B): 1.302

COc1ccc(CC(=O)N2C[C@@H](C(=O)O)CC[C@H]2C)cc1 [BnH12063, (3S,6R)-1-(2-(4-methoxyphenyl)acetyl)-6-methylpiperidine-3-carboxylic acid]
Cell viability test results (CCK) 10 uM (293T cells): 95%< | Cell viability test results (CCK) 100 uM (293T cells): 95%< | Effect on GluN2B expression compared to the vehicle (GluN2B): excellent effects | GluN2B expression, Western blot results, Mean (GluN2B): 1.652

C[C@H]1CC[C@@H](C(=O)O)CN1CCc1ccc(F)cc1Cl [BnH12010, (3R,6S)-1-(2-chloro-4-fluorophenethyl)-6-methylpiperidine-3-carboxylic acid]
GluN2B expression, Western blot results, Mean (GluN2B): 1.074

C[C@H]1CCCCN1C(=O)Cc1ccc(F)cc1Cl [BnH12005, (S)-2-(2-chloro-4-fluorophenyl)-1-(2-methylpiperidin-1-yl)ethan-1-one]
Cell viability test results (CCK) 10 uM (293T cells): 99%< | Cell viability test results (CCK) 100 uM (293T cells): 90%< | GluN2B expression, Western blot results, Mean (GluN2B): 1.206

C[C@H]1CCCCN1C(=O)Cc1cccnc1 [BnH12060, (S)-1-(2-methylpiperidin-1-yl)-2-(pyridin-3-yl)ethan-1-one]
Cell viability test results (CCK) 10 uM (293T cells): 99%< | Cell viability test results (CCK) 100 uM (293T cells): 99%< | Effect on GluN2B expression compared to the vehicle (GluN2B): excellent effects | GluN2B expression, Western blot results, Mean (GluN2B): 1.469

C[C@@H]1CC[C@H](C(=O)[O-])CN1C(=O)Cc1cccnc1.[Na+] [BnH12068, Sodium (3S,6R)-6-methyl-1-(2-(pyridin-3-yl)acetyl)piperidine-3-carboxylate]
GluN2B expression, Western blot results, Mean (GluN2B): 1.286

C[C@H]1CC[C@@H](C(=O)O)CN1C(=O)Cc1cccc(N)c1 [BnH12074, (3R,6S)-1(2-(3-aminophenyl)acetyl)-6-methylpiperidine-3-carboxylic acid]
Cell viability test results (CCK) 10 uM (293T cells): 85%< | Cell viability test results (CCK) 100 uM (293T cells): 80%< | Effect on GluN2B expression compared to the vehicle (GluN2B): excellent effects | GluN2B expression, Western blot results, Mean (GluN2B): 2.146
